Results taken from US20100197628A1, “METHODS OF TREATING PSYCHIATRIC, SUBSTANCE ABUSE, AND OTHER DISORDERS USING COMBINATIONS CONTAINING OMEGA-3 FATTY ACIDS” (priority 2003, published 2010).
“Also recorded” adds a separate entry of the source. Structures can show the parent of a compound that is named as a salt.

Experiments:
male Sprague-Dawley rats = assay: Forced swim test (FST): latency to become immobile and behavioral sampling; assay type: in vivo, rat; conditions: re-test (day 2), DMI 10 mg/kg, FLX 20 mg/kg; for latency to become immobile: 3 IP injections, CIT 5.0 mg/kg; for occurrences of climbing (behavioral sampling) / occurrences of immobility (behavioral sampling) / occurrences of swimming (behavioral sampling): CIT 5.0 mg/kg IP
Experimental: The behavioral effects of the combination of uridine and omega-3 fatty acids were also evaluated in rats using the forced swim test (FST). This assay identifies in rodents treatments that have antidepressant effects in humans (Porsolt et al. Nature 266:730-732 1977; Carlezon et al. Biol. Psychiatry 51:882-889, 2002). Uridine was administered using systemic injection while omega-3 fatty acids were administered by supplementation within the diet for various periods of time (3, 10, or 30 days). The effects of uridine in rats maintained on the omega-3 fatty acid-enriched diet were also evaluated to determine if these effects were additive. […] The efficacy of each treatment in the FST was evaluated using two separate scoring methods: latency to become immobile, a simple and rapid method that identifies agents with antidepressant effects ([…] et al. J Neurosci 21:7397-7403 2001), and behavioral sampling, a more complex method that differentiates antidepressant drugs according to their pharmacological mechanisms (Detke et al. Psychopharmacology 121:66-72 1995). Finally, treatments with antidepressant-like effects in the FST were evaluated for non-specific effects on activity in an open field, which might complicate interpretation of the data from the swimming studies. Rats: A total of 197 male Sprague-Dawley rats (Charles River Laboratories, Boston Mass.) were used in these studies. The rats were housed in groups of four and weighed 325-375 gm at the time of behavioral testing. Rats were maintained on a 12 h light (0700-1900 h)-12 h dark cycle with free access to food and water except during testing. Experiments were conducted in accordance with the 1996 Guide for the Care and Use of Laboratory Animals (NIH) and McLean Hospital policies. Drugs: Dosages of desipramine HCl (DMI), fluoxetine HCl (FLX), citalopram HBr (CIT), and uridine (URI) were administered in a distilled water vehicle (VEH) at a volume of 1 cc/kg. All drugs were purchased from RBI-Sigma (St. Louis, Mo.) except CIT, which was a gift of Forest Laboratories (New York, N.Y.). […] The diets were equivalent in overall fat, protein, carbohydrate, and caloric content. Forced Swim Test (FST): One hundred-sixty seven rats were used in the FST studies, which were conducted as described previously (Carlezon et al. Biol. Psychiatry 51:882-889, 2002) with minor modifications. The FST is a two-day procedure in which rats swim under conditions in which escape is not possible. On the first day, rats are placed in clear, 65 cm tall-25 cm diameter cylinders filled to 48 cm with 25° C. water. The rats initially struggle to escape from the water, but eventually they adopt a posture of immobility in which they make only the movements necessary to keep their heads above water. After 15 min of forced swimming, the rats are removed from the water, dried with towels, and placed in a warmed enclosure for 30 min. The cylinders are emptied and cleaned between rats. When the rats are re-tested 24 hours later under identical conditions in 5 min sessions, immobility is increased. Treatment with standard antidepressant drugs within the 24 hr period between the first exposure to forced swimming and re-testing can attenuate facilitated immobility, an effect correlated with antidepressant efficacy in humans (Porsolt et al. Nature 266:730-732 1977; Detke et al. Psychopharmacology 121:66-72 1995, Carlezon et al. Biol. Psychiatry 51:882-889, 2002). Rats tested with DMI, FLX, CIT, or URI received 3 separate intraperitoneal (IP) injections of drug (or VEH), at 1 hr, 19 hr, and 23 hr after the first exposure to forced swimming. This commonly used regimen is sensitive to the antidepressant-like effects of many standard agents (Porsolt et al. Nature 266:730-732 1977; Detke et al. Psychopharmacology 121:66-72 1995; Carlezon et al. Biol. Psychiatry 51:882-889, 2002). […] There were 7-12 rats per treatment condition, and separate rats were used for each treatment regimen. […]

depressed subjects = assay: 17-item Hamilton Depression Rating Scale (HDRS), eight weeks of treatment; assay type: in vivo, human
Experimental: In a second study, twelve depressed subjects (mean age 40) received 500 mg of an oral formulation of CDP-choline twice daily for eight weeks.

[1] = eight weeks, CDP-choline 500 mg twice daily, fluoxetine 20 mg/day

Compound | latency to become immobile (male Sprague-Dawley rats; HCl) | occurrences of climbing (behavioral sampling) (male Sprague-Dawley rats; HCl) | occurrences of immobility (behavioral sampling) (male Sprague-Dawley rats; HCl) | occurrences of swimming (behavioral sampling) (male Sprague-Dawley rats; HCl) | latency to become immobile (male Sprague-Dawley rats; HBr) | occurrences of climbing (behavioral sampling) (male Sprague-Dawley rats) | occurrences of swimming (behavioral sampling) (male Sprague-Dawley rats) | occurrences of immobility (behavioral sampling) (male Sprague-Dawley rats; HBr) | mean 17-item HDRS score with eight weeks of treatment (depressed subjects; CDP-choline 500 mg oral twice daily, fluoxetine open label 20 mg/day, p<0.0001) | mean 17-item HDRS score before treatment (depressed subjects; baseline, CDP-choline 12 subjects, fluoxetine 41 subjects) | complete responses (subjects/total) (depressed subjects; [1]) | complete responses, share of subjects (depressed subjects; [1]) [%] | latency to become immobile (male Sprague-Dawley rats; listed as FLX, HCl) | occurrences of immobility (behavioral sampling) (male Sprague-Dawley rats; listed as FLX, HCl)
CNCCCN1c2ccccc2CCc2ccccc21 [DMI, desipramine HCl] | increased latencies to become immobile | increased climbing; also recorded: increases in occurrences of climbing | reduced immobility; also recorded: decreases in occurrences of immobility | without affecting occurrences of swimming |  |  |  |  |  |  |  |  |  | 
CN(C)CCCC1(c2ccc(F)cc2)OCc2cc(C#N)ccc21 (stereo not shown) [CIT, citalopram HBr] |  |  |  |  | increased latencies to become immobile | without affecting climbing | increased swimming | reduced immobility; also recorded: decreased immobility |  |  |  |  |  | 
CNCCC(Oc1ccc(C(F)(F)F)cc1)c1ccccc1 (stereo not shown) [fluoxetine, fluoxetine HCl] |  |  |  |  |  | without affecting climbing | increased swimming |  | 11±6 | 21±4 | 17/41 | 41 | increased latencies to become immobile | reduced immobility; also recorded: decreased immobility
